Assay results: patent US20100137239A1, “GEMCITABINE COMBINATION THERAPY” (GLOUCESTER PHARMACEUTICALS, priority 2006, published 2010)
Values joined by “and” are separate entries in the source; they are usually repeats but may differ in a detail not shown here. Equal entries are not always repeated.

What was measured:
[1] = tested on: BxPC-3 Human Pancreatic Tumor Xenograft; experiment: BxPC-3 xenograft tumor growth inhibition study (Example 3); format: in vivo, mouse xenograft; details: for % TGI: BxPC-3, Day 29; for activity according to NCI Standards / #PR/CR / FINAL TUMOR VOLUME (DAY 29) MEAN ± SEM / calculated TGI values (discussion): BxPC-3; for calculated TGI values (discussion): all evaluated doses and schedules
Excerpt: (§1) (Madison, Wis.). […] Tumor measurements were converted to cubic millimeter tumor volume using the formula^(5): […] Final mean tumor volume ±SEM for each group was reported; animals experiencing partial or complete tumor regressions or animals experiencing technical or drug-related deaths were censored from these calculations. […] TGI values for each treatment group are reported at study completion; these calculations are based on the final study day. […] If partial tumor regression was reported in multiple animals within one group, a mean value was determined. Individual mice lacking palpable tumors were classified as undergoing complete regression (CR). Animals experiencing partial or complete tumor regressions were censored from TGI calculations. However, data from these animals was included in statistical analysis calculations. In addition, weight data from these animals was included in daily and final group calculations. Tumor Necrosis-Degree of tumor necrosis was rated at each tumor measurement using the following arbitrary index: [table]

acetylated histone 4 = experiment: Immunoblot of acetylated histone 4 in PANC-1 xenograft tumors; format: in vivo, human; details: FK228 5 mg/kg Q4Dx3; gemcitabine 80 mg/kg Q3Dx4; tumors at study completion; vs controls
Procedure: (§2) Abstract: To examine activity and mechanism of FK228, antitumor efficacy was tested in PANC-1 pancreatic adenocarcinoma model representing transformed Ras, either as a single agent or in combination with gemcitabine. Following PANC-1 study completion, tumor and sera were obtained from: • the vehicle control; • FK228 dosed at 5 mg/kg once every four days for three treatments (Q4Dx3); • Gemcitabine at 80 mg/kg (Q3Dx4); and • the drug combination. Expression of c-Myc, acetylated histones 3 and 4, and p21^waf1 was compared between control and FK228 groups by immunoblotting and was quantified following actin normalization. Serum levels of putative tumor products b-FGF and MMP-2 were quantified by human-specific ELISA. […]
(§3) Tissue Biomarkers: Tumor levels of acetylated histone-4, histone-4, c-Myc, p21waf and β-actin were quantified by immunoblotting as described. […] The chemiluminescence signal was captured by autoradiography, quantified by densitometry and expressed as a ratio of actin in each sample lane. For each biomarker, means and standard errors were calculated in each treatment group. […]
(§4) Expression of c-Myc, acetylated histones 3 and 4, and p21^waf1 was compared between control and FK228 groups by immunoblotting and was quantified following actin normalization. Serum levels of putative tumor products b-FGF and MMP-2 were quantified by human-specific ELISA. […]

c-Myc = experiment: Immunoblot of c-Myc in PANC-1 xenograft tumors after treatment; format: in vivo, human; details: FK228 5 mg/kg Q4Dx3; gemcitabine 80 mg/kg Q3Dx4; tumors at study completion; actin-normalized, vs controls
Procedure: as §2, §3, §4

[2] = tested on: PANC-1 Human Pancreatic Tumor Xenograft; experiment: PANC-1 xenograft tumor growth inhibition study (Example 3); format: in vivo, mouse xenograft; details: for % TGI: PANC-1, Day 25; for activity according to NCI Standards / #PR/CR / FINAL TUMOR VOLUME (DAY 25) MEAN ± SEM / calculated TGI values (discussion) / % TR: PANC-1; for calculated TGI values (discussion): all evaluated doses and schedules
Excerpt: as §1

[3] = FK228 2.5 mg/kg IV Q4Dx3, 2.5 mg/kg
[4] = FK228 5 mg/kg IV Q4Dx3, 5 mg/kg

C/C=C1\NC(=O)[C@H]2CSSCC/C=C/[C@H](CC(=O)N[C@H](C(C)C)C(=O)N2)OC(=O)[C@H](C(C)C)NC1=O [FK228, romidepsin]
% TGI ([1]; FK228 2.5 mg/kg IV Q4Dx3): No TGI | % TGI ([1]; FK228 5 mg/kg IV Q4Dx3): No TGI | activity according to NCI Standards ([1]; FK228 2.5 mg/kg IV Q4Dx3): inactive | #PR/CR [1, 3]: 0/9 and 0/0 | FINAL TUMOR VOLUME (DAY 29) MEAN ± SEM [1, 3]: 2440±643 mm^3 | activity according to NCI Standards ([1]; FK228 5 mg/kg IV Q4Dx3): inactive | #PR/CR [1, 4]: 0/9 and 0/0 | FINAL TUMOR VOLUME (DAY 29) MEAN ± SEM [1, 4]: 2620±238 mm^3 | calculated TGI values (discussion) [1]: No tumor growth inhibition | single agent activity towards tumor model ([1]; wildtype ras BxPC-3): inactive | increase of acetylated histone 4 (acetylated histone 4): over 2 fold | inhibition of c-Myc expression (c-Myc): 50% | % TGI ([2]; FK228 2.5 mg/kg IV Q4Dx3): 26% | % TGI ([2]; FK228 5 mg/kg IV Q4Dx3): 26% | activity according to NCI Standards ([2]; FK228 2.5 mg/kg IV Q4Dx3): inactive | #PR/CR [2, 3]: 0/9 and 0/0 | FINAL TUMOR VOLUME (DAY 25) MEAN ± SEM [2, 3]: 1688±290 mm^3 | activity according to NCI Standards ([2]; FK228 5 mg/kg IV Q4Dx3): inactive | #PR/CR [2, 4]: 0/9 and 0/0 | FINAL TUMOR VOLUME (DAY 25) MEAN ± SEM [2, 4]: 1690±290 mm^3 and 1690 ± 331 mm^3 | calculated TGI values (discussion) [2]: less than 58% | single agent activity towards tumor model ([2]; ras-transformed PANC-1): some activity

Nc1ccn([C@@H]2O[C@H](CO)[C@@H](O)C2(F)F)c(=O)n1 [Gemcitabine, gemcitabine]
% TGI ([1]; Gemcitabine 40 mg/kg IP Q3Dx4): 20% | % TGI ([1]; Gemcitabine 80 mg/kg IP Q3Dx4): 9% | #PR/CR ([1]; Gemcitabine 40 mg/kg IP Q3Dx4): 0/9 and 0/0 | FINAL TUMOR VOLUME (DAY 29) MEAN ± SEM ([1]; Gemcitabine 40 mg/kg IP Q3Dx4): 1683±426 mm^3 | activity according to NCI Standards ([1]; Gemcitabine 40 mg/kg IP Q3Dx4): inactive | #PR/CR ([1]; Gemcitabine 80 mg/kg IP Q3Dx4): 0/9 and 0/0 | FINAL TUMOR VOLUME (DAY 29) MEAN ± SEM ([1]; Gemcitabine 80 mg/kg IP Q3Dx4): 1890±237 mm^3 | activity according to NCI Standards ([1]; Gemcitabine 80 mg/kg IP Q3Dx4): inactive | calculated TGI values (discussion) [1]: less than 58% | increase of acetylated histone 4 (acetylated histone 4): on the control level | inhibition of c-Myc expression (c-Myc): 50% | % TGI ([2]; Gemcitabine 40 mg/kg IP Q3Dx4): 31% | % TGI ([2]; Gemcitabine 80 mg/kg IP Q3Dx4): 51% | #PR/CR ([2]; Gemcitabine 40 mg/kg IP Q3Dx4): 1/9 and 1/0 | % TR ([2]; Gemcitabine 40 mg/kg IP Q3Dx4): 62% | FINAL TUMOR VOLUME (DAY 25) MEAN ± SEM ([2]; Gemcitabine 40 mg/kg IP Q3Dx4): 1566±255 mm^3 | activity according to NCI Standards ([2]; Gemcitabine 40 mg/kg IP Q3Dx4): inactive | % TR ([2]; Gemcitabine 40 mg/kg IP Q3Dx4, listed as gemcitabine): 62% | #PR/CR ([2]; Gemcitabine 80 mg/kg IP Q3Dx4): 0/9 and 0/0 | FINAL TUMOR VOLUME (DAY 25) MEAN ± SEM ([2]; Gemcitabine 80 mg/kg IP Q3Dx4): 1172±234 mm^3 | activity according to NCI Standards ([2]; Gemcitabine 80 mg/kg IP Q3Dx4): inactive | calculated TGI values (discussion) [2]: less than 58%
